Assay results reported in patent publication US20080312150A1 (priority 1999, published 2008).

How the values were obtained:
[1] = system: LNCaP cells; assay: PDT using ALA-induced PpIX, cell survival (MTT conversion assay); format: cell-based, human; details: for light dose to reduce cell survival by 50% (MTT): 514 nm light; for survival after PDT: versus no pretreatment
Protocol: ALA-induced PpIX for PDT of LNCaP cells with (circles) or without (triangles) pretreatment for 72 hours with 10^−7 M R1881. The cells were incubated with ALA concentrations from 0.1 to 1.0 mM for four hours prior to exposure to 10 J/cm^2 of 514 nm light.
PDT using ALA-induced PpIX in LNCaP cells with (circles) or without (triangles) pretreatment for 72 hours with 10^−7 M R1881. The cells were incubated with 0.3 mM ALA for four hours prior to exposure to 3-20 J/cm^2 of 514 nm light.
(§1) LNCaP (human prostate cancer) cells were treated with methotrexate (1 μg/ml) for 72 hours. The cells were then incubated with 0.3 mM ALA for 4 hours. After ALA treatment, cells were either used for quantification of PpIX or exposed to 514 nm light. […] This enhancement of PDT by chemotherapy can also be seen when long-term survival was assessed by colony formation assay (FIG. 6B). Here, the 50% levels are reached at 25 J/cm2, compared to 2 J/cm2. […] Chemotherapeutic effect was also confirmed using cyclophosphamide.

[2] = system: LNCaP (human prostate cancer) cells; assay: PDT long-term survival by colony formation assay; format: cell-based; details: 514 nm light
Protocol: as §1

[3] = system: human skin; assay: Fluorescence micrograph of ALA-induced PpIX in human skin; details: human skin incubated in ALA for 4 hours
[4] = cell line and regimen not stated
Protocol: as §1

[5] = system: LNCaP human prostate cancer cells; assay: ALA-induced PpIX formation by LNCaP cells; format: cell-based
Protocol: ALA-induced PpIX formation by LNCaP human prostate cancer cells. The cells were incubated for four hours with 0.3 mM ALA after 72 hours of pretreatment with the synthetic androgen R1881 at concentrations between 10^−10 to 10^−6.
as §1

[6] = system: LNCaP cells; assay: Confocal laser scanning microscopy of PPIX fluorescence in living cells; format: cell-based, human; details: 10^−7 M R1881 72 hours, then 0.3 mM ALA 4 hours; excitation 488 nm
Protocol: LNCaP cells were pretreated with 10^−7 M R1881 for 72 hours or with vehicle, and then incubated with 0.3 mM ALA. At 4 hours the living cells were imaged using the confocal laser scanning microscope. Excitation was at 488 nm and both green (auto fluorescence) and red (PPIX) fluorescence was recorded and combined.

[7] = system: LNCaP tumors; assay: PpIX formation in LNCaP tumors in vivo (confocal imaging of frozen sections); parameters: species or system SCID mice; details: 400 pg/kg R1881, after 4 days 250 mg/kg ALA i.p., tumors removed at 4 hours; 633 nm excitation
Protocol: SCID mice bearing LNCaP tumors were pretreated with a high dose of 400 pg/kg R1881 and after 4 days received 250 mg/kg ALA i.p. At 4 hours, the mice were sacrificed and the tumors removed. Frozen sections of the tumors were imaged on the confocal laser scanning microscope. Using 633 nm excitation, the sections of tumors from an untreated mouse (FIG. 5A) and an R1881-pretreated mouse (FIG. 5B) were imaged at the same instrument parameters.

[8] = PDT alone: 0.3 mM ALA 4 hours, no methotrexate
[9] = combined regimen: methotrexate 1 μg/ml 72 hours, 0.3 mM ALA 4 hours

Structure (SMILES): NCC(=O)CCC(=O)O [ALA]
- light dose to reduce cell survival by 50% (MTT) [1, 8]: 20 J/cm2
- light dose for 50% level (colony formation) [2, 8]: 25 J/cm2
- ALA-induced PpIX fluorescence signal across epidermal layers [3]: increase of fluorescence signal from bottom to top epidermal layers

Structure (SMILES): O=P1(N(CCCl)CCCl)NCCCO1 (stereo not drawn) [cyclophosphamide]
- chemotherapeutic effect (enhancement of PDT by pretreatment) [4]: confirmed

Structure (SMILES): CN(Cc1cnc2nc(N)nc(N)c2n1)c1ccc(C(=O)N[C@@H](CCC(=O)O)C(=O)O)cc1 [methotrexate]
- increase in PpIX levels ([5]; methotrexate 1 μg/ml 72 hours, then 0.3 mM ALA 4 hours, mean+/−standard deviation): 4.1±1.1 fold
- light dose to reduce cell survival by 50% (MTT) [1, 9]: 2 J/cm2
- light dose for 50% level (colony formation) [2, 9]: 2 J/cm2

Structure (SMILES): C[C@]1(O)CC[C@H]2[C@@H]3CCC4=CC(=O)CCC4=C3C=C[C@@]21C [R1881]
- ALA-induced PpIX formation (% of cells without androgen treatment) ([5]; 72 hours pretreatment with R1881 10^−10 to 10^−6, then 0.3 mM ALA four hours): significant increase
- survival after PDT ([1]; 72 hours 10^−7 M R1881, 0.3 mM ALA four hours, 3-20 J/cm^2 of 514 nm light): Reduced survival
- survival after PDT ([1]; 72 hours 10^−7 M R1881, ALA 0.1 to 1.0 mM four hours, 10 J/cm^2 of 514 nm light): Reduced survival
- PPIX fluorescence in cells [6]: strong PPIX fluorescence in almost all cells
- PpIX formation in tumors [7]: increased PpIX formation
